Structures are written as SMILES. “Also recorded” adds a separate entry of the source.

Data on one compound can be found in patent US20110028554A1, “PHARMACEUTICAL COMPOSITIONS COMPRISING DIIODOTHYRONINE AND THEIR THERAPEUTIC USE” (UNIVERSITE JOSEPH FOURIER, priority 2007, published 2011).

The nature of assay [1]: Food intake of Wistar rats. It is filed as in vivo. On the procedure:
(§1) Adult male rat bred in the animal room facilities of Laboratory of Fundamental and Applied. Bioenergetics (Wistar strain) or purchased from Charles-River Laboratories, Domaine des oncins, L'ARBRESLE France [(genetically obese normoglycemic (Zucker or Fa/Fa) or diabetic (ZDF)] were caged individually in stainless steel hanging cages and maintained in a 22° C., 50±10% relative humidity and 12 h:12 h light:dark environment. All animals were fed ad libitum with a standard rat chow (Safe A04, Villemoisson, France) and tap water. Body mass and food intake were recorded twice/thrice a week and fresh food was provided, at the same time to ensure minimal disturbance to the animals' food, behavior.
(§2) Eight-week old rats (300 g±10 g) were anesthetized by simultaneous intraperitoneal injection of diazepam 4 mg/kg and ketamine 100 mg/kg. In order to maintain body temperature during the surgery (10 min), animals were placed on a warm blanket. After interscapular shaving, a small incision of 0.5 cm of the skin allows the subcutaneous implantation of a small pellet (containing rT3 or 3′,3-T2) with a 10-gauge precision trochar. The pellets, manufactured by Innovative Research of America (Sarasota, Fla., USA) are constituted of a biodegradable matrix that effectively and continuously release the active product in the animal.
(§3) 3-5 diiodothyronine (3-5 T2) or 3-3′diiodothyronine (3-3′ T2) were used at different doses (5, 0.5, or 0.1 mg/pellet) were implanted in order to provide a continuous and constant drug delivery over 60 days (which represents 25 μg, 2.5 μg or 0.5 μg/day/100 g BW).

The nature of assay [2]: Body composition of genetically obese Zucker rats. The assay is classed as in vivo, Zucker (Fa/Fa) rats. Conditions: FIG. 9, high dosage 25 μg/100 g BW. An excerpt: (§4) At the end of the experimental period, animals were sacrificed by decapitation, in order to avoid the well-known effects of general anesthetics on mitochondrial metabolism. Blood, samples were immediately collected and plasma was frozen for subsequent determination of serum metabolites and hormones. Liver, muscles and fat depots were quickly excised and weighed. Liver median lobe was rapidly freeze-clamped. Muscles (plantaris, soleus and gastrocnemius) were frozen in isopentane precooled in liquid nitrogen. Mesenteric fat consisted, of adipose tissue surrounding the gastro-intestinal tract from the gastro-oesophageal sphincter to the end of the rectum with special care taken in distinguishing and removing the pancreas. Retroperitoneal fat pad was taken as the distinct depot behind each kidney along the lumbar muscles. Epididymal fat consisted, of adipose tissue on top of the epididymis. For subcutaneous depot measurement, a rectangular piece of skin was taken on the right side of each animal from the median line of the abdomen between the spine and the right hip to the first rib. Interscapular brown adipose tissue was removed and dissected free from adjacent muscles and white adipose tissue. The heart ventricles, the right kidney and the spleen were also excised, weighed and frozen.

Assay [3] can be described thus: Growth rate (body weight) of Wistar rats with subcutaneous continuous-release pellet. It is filed as in vivo. The method, then:
as §1, §2, §3

Assay [4] relates to muscle mitochondria. Kind of assay: Muscle mitochondrial oxygen consumption (JO2) of treated Wistar rats. It is filed as in vivo. The method, then:
All measurements were performed using mitochondria (0.2 mg mitochondrial protein/ml) incubated with various substrates: • GM: glutamate/malate (5 mM/2.5 mM) • SR: succinate/rotenone (5 mM/5 μM), • GMS: glutamate/malate/succinate (5 mM/2.5 mM/5 mM), • Palm: palmitoyl carnitine (55 μM), • Octa: octanoyl carnitine (100 μM), • TMPD/AsC: TMPD/ascorbate (0.5 mM/0.5 mM), and • TMPD/AsC/DNP: TMPD/ascorbate/DNP (0.5 mM/0.5 mM/75 μM).
JO2 was recorded in the presence of the substrate and following the addition of 1 mM ADP (state 3).
The oligomycin was added to the mitochondrial suspension to determine the non-phosphorylating respiratory rate (state 4).
The major part of the liver and the red part of each quadriceps were rinsed, and chopped into isolation medium (250 mM sucrose, 20 mM Tris-HCl and 1 mM EGTA-Tris, pH 7.4). Nuclei and cell debris were removed, by centrifugation at 800 g for 10 min. Mitochondria were then isolated from the supernatant by spinning twice at 8,000 g for 10 minutes. The mitochondrial pellet was resuspended in 0.5 ml of isolation buffer and kept on ice. Mitochondrial protein was measured by the bicinchoninic acid method (Pierce, Rockford, Ill.). The final mitochondrial suspensions were maintained on ice and were used for measurements of oxygen consumption rate and reactive oxygen species (ROS) production.
The rate of mitochondrial oxygen consumption (JO2) was measured at 30° C. in an incubation chamber with a Clark-type O2 electrode filled with 2 ml of incubation medium (125 mM KCl, 10 mM Pi-Tris, 20 mM Tris-HCl, 0.1 mM EGTA, pH 7.2). All measurements were performed using mitochondria (1.0 or 0.2 mg mitochondrial protein/ml for liver and skeletal muscle) incubated either with various substrates: glutamate/malate (5 mM/2.5 mM) and succinate (5 mM), alone or in combination, palmitoyl carnitine (55 μM) and octanoyl carnitine (100 μM). For each substrate, JO2 was recorded in the presence of the substrate alone (State 2) and following the addition of 1 mM ADP (state 3). Oligomycin (1.25 μg/mg protein) was added to the mitochondrial suspension to determine the non-phosphorylating respiratory rate (state 4). The incubation medium was constantly stirred with a built-in electromagnetic stirrer and bar flea. The efficiency of the mitochondrial oxidative phosphorylation was assessed by the state 3/state 4 ratio which measures the degree of control imposed on oxidation by phosphorylation (respiratory control ratio, RCR).

Assay [5] is described as follows: Body composition (adipose tissues, skeletal muscles, brown adipose tissue) of Wistar rats. It is filed as in vivo.
Excerpt: as §4

Assay [6] can be described thus: Plasmatic concentrations of glucose, triglycerides, cholesterol, FFA and HDL on the day of sacrifice. It is filed as in vivo, Wistar, Zucker and ZDF rats.
Excerpt: These measurements were done on venous blood of the rats the day of the sacrifice.
as §4
Glucose and 3-hydroxybutyrate (3-HB) were measured, enzymatically and non esterified fatty acid (NEFA) by colorimetric assay (Wako Chemicals).
Triglycerides and cholesterol were measured by classical routine automate apparatus.

In the case of `N[C@@H](Cc1cc(I)c(Oc2ccc(O)cc2)c(I)c1)C(=O)O` [3,5-T2, 3,5-diiodothyronine], the “Food intake vs placebo” value in assay [1] (high dosage 25 μg/100 g BW) was “a clear increase was observed”. Moreover, the “Food intake vs placebo” value in assay [1] (low dosage 2.5 μg/100 g BW) is “almost not affect”. Also, in assay [2], the “Absolute values of fat deposit, all localizations, vs placebo” value is “significantly lower”; the “Brown adipose tissue vs placebo” value was “significantly increased”; the “Muscle mass vs placebo” value was “not affected”. In assay [3] (high dosage 25 μg/100 g BW), the “Growth rate (body weight gain) vs placebo” value was “did not show similar weight gain; also recorded: a biphasic curve was observed with a weight gain between the 10th and the 15th day”. The “Growth rate (body weight gain) vs placebo” value in assay [3] (low dosage 2.5 μg/100 g BW) is given as “the body mass did not change”. In addition, in assay [4] (high dosage 25 μg/100 g BW), the “Muscle mitochondrial respiration, non-phosphorylating (state 4), vs placebo” value is reported as “failed to substantially affect” and the “Muscle mitochondrial respiration, phosphorylating (state 3), vs placebo” value is listed as “failed to substantially affect”. In assay [4] (low dosage 2.5 μg/100 g BW), the “Muscle mitochondrial respiration, non-phosphorylating (state 4), vs placebo” value is listed as “failed to substantially affect” and the “Muscle mitochondrial respiration, phosphorylating (state 3), vs placebo” value was “failed to substantially affect”. Besides, in assay [5] (high dosage 25 μg/100 g BW), the “Brown adipose tissue weight vs placebo” value was “significantly increased”; the “Fat masses, all localizations (retroperitoneal, epididymal, mesenteric, subcutaneous) vs placebo” value is reported as “significantly lower”; the “Muscle mass / lean body mass vs placebo” value is given as “not affected at all”. Besides, in assay [5] (low dosage 2.5 μg/100 g BW), the “Fat mass vs placebo” value was “significantly decreased” and the “Lean body mass vs placebo” value is “not affected”. In addition, the “Plasmatic glucose at the end of the treatment” value in assay [6] (non-diabetic Wistar rats, low dosage 2.5 μg/100 g BW) was “minor changes”. Further, the “Plasmatic glucose at the end of the treatment” value in assay [6] (non-diabetic Zucker rats, 25 μg/100 g BW) is on record as “minor changes”.
